# Laboratory results: PMC7268320, “Cerebrospinal fluid penetration of targeted therapeutics in pediatric brain tumor patients” (Acta Neuropathologica Communications, 2020)
# Entries after “also recorded” stand apart in the source; their conditions may differ.
# Assays:
# [1] = CSF drug concentration in pediatric brain tumor patients, Ommaya reservoir samples, HPLC-QqQ MS; assay type: in vivo, human; conditions: for CSF penetrance class: CSF concentration class; for CSF concentration, mean: total drug, steady state; for CSF concentration, mean / detection in CSF samples: oral dosing, pediatric brain tumor patients
# Method: Samples were obtained from patients treated at the Department of Pediatrics and Adolescent Medicine at the General Hospital of Vienna and the study was approved by the ethics committee of the Medical University of Vienna. Patient characteristics (age, weight, sex) and clinical data (tumor type, medication, radiotherapy, localization, leptomeningeal disease, serum protein levels, and CSF protein levels) were retrieved from patient charts. Clinical and serum parameters were measured within the same treatment cycle, CSF protein levels at the same date and sample collection time point. Samples were collected and snap frozen within routine clinical sampling during intraventricular chemotherapy administration.
# We included samples of patients who received oral small molecule inhibitors and concomitant intraventricular therapy. […] As backbone therapy the majority of patients were treated according to the MEMMAT protocol (NCT01356290) with slight modifications in some cases as indicated in Additional file 1: Table S1. Dosing for pediatric patients was adjusted according to the treatment protocols or previous reports as outlined in Table 1. […] In two cases, samples of patients being sequentially treated with different drugs were collected as indicated in Additional file 1: Table S2. […] CSF samples (< 0.5 mL) of pediatric patients were collected using an Ommaya reservoir, immediately snap frozen and afterwards stored at − 80 °C prior to HPLC-MS analysis. Figure 1 gives general information on the workflow of CSF sample collection, sample preparation and HPLC-MS analysis. Detailed information on the analysis method and the working parameters of the HPLC-MS system(s) can be found in the supplementary material available online (Additional file 1: Figures S1 and S2 and Tables S3–4).
# In a first step, we determined whether CSF samples from Ommaya reservoirs analyzed with HPLC-QqQ MS or HPLC-IMS-Q-TOF MS allow reliable detection of orally administered drugs and the respective metabolites. For that purpose, special focus was on the improvement of an HPLC-QqQ MS multi-method to quantitate the respective substances in CSF samples. The applied chromatographic gradient as well as the sensitivity of the MS detection were optimized to allow a quantitation of all mentioned analytes within one run and over a broad range of analyte concentration levels (800 ng L^− 1 to 250 μg L^− 1).
# Table S2 Sequential therapies of the investigated drugs in the study cohort. The period to the prior drug is indicated in brackets.
# Selleckchem (Houston, TX, USA). Standards were originally prepared as a 10 mM DMSO solution, but were further diluted with methanol to obtain stock solutions containing analyte concentrations of 10 mg L-1 and were stored at 4 °C. The internal standard (ISTD) carbamazepine (> 98 %) was obtained from Sigma-Aldrich Handels GmbH (Vienna, Austria) and used as a methanolic stock solution with a concentration of 2 g L-1, which was diluted as needed.
# Succinanilic acid (p.a.) was purchased from Sigma-Aldrich Handels GmbH (Vienna, Austria) diluted to a 400 mg L-1 methanolic stock solution and stored at 4 °C.
# All used solvents were HPLC grade and were purchased from VWR International GmbH (Darmstadt, […]
# Formic acid (≥ 96 %) was purchased from Sigma-Aldrich Handels GmbH (Vienna, Austria).
# Water was used in Millipore quality obtained from a Millipore purification system (Molsheim, France).
# CSF samples (< 0.5 mL) of pediatric patients receiving cancer therapy drugs were collected using an Ommaya reservoir, and were stored at -80 °C prior to further analysis.
# [2] = Calculated free (protein-unbound) drug levels in CSF, law of mass action; assay type: in vivo, human; conditions: law of mass action approach; for fraction unbound: human, CSF, oral, read-out: unbound fraction of the total drug amount measured in CSF
# Description: Directly measuring free drug levels in CSF may be impossible due to low drug concentrations. Besides the experimental quantitation, if feasible, also the law of mass action can be used to predict protein-unbound drug levels. Accordingly, CSF proteins and associated drugs may be considered as center and ligand, forming a complex. Consequently, we applied the corresponding mathematical model to estimate free drug concentration. The derivation is given in further detail in the supplementary material.
# ABCB1 = experiment: Intracellular drug accumulation in ABCB1-overexpressing KB-C1 cells with or without elacridar (ABCB1 substrate testing), HPLC-QqQ MS; assay type: cell-based; conditions: fold-change of drug accumulation upon ABCB1-inhibition with elacridar, Fig. 4 coding: > 2 fold-control unfavorable, 1–2 intermediate, < 1 favorable
# Method: We first compared interaction of the investigated drugs with ABCB1 by measuring fluorescent substrate drug accumulation in the parental KB-3-1 (a HeLa cell derivative) cell model and its isogenic ABCB1-overexpressing KB-C1 cell model, as previously published. As a known fluorescent ABCB1 substrate calcein (derived from non-fluorescent calcein AM) was used in the presence of investigated drugs (1 μM and 10 μM) using fluorescence-activated cell sorting (FACS). The ABCB1 inhibitor elacridar was used as positive control. As this approach cannot distinguish competitive (by a substrate) and non-competitive (by a pure inhibitor) ABCB1 inhibition, KB-C1 cells were additionally exposed to the examined drugs with or without elacridar to test the actual impact of ABCB1 activity on the concentration of drug within the cells. In detail, cultivated cells were grown, washed, lysed using 100 μL methanol, centrifuged and stored at − 80 C prior to analysis. […] Finally, 100 μL supernatant were collected and analyzed using the developed HPLC-QqQ MS method (see Supplementary Material).
# 6. Experiments with ABCB1-overexpressing KBC1 cells
# Experiments were conducted to test for a possible inhibition or substrate character of the investigatzed […]
# Figure S8 ABCB1 testing. (A) Calcein accumulation assay in KB-3-1 (control) and ABCB1-overexpressing KBC1 cells. Bars depict calcein fluorescence intensity measured by fluorescence activated cell sorting (FACS). Higher bars as compared to calcein in ABCB1-overexpressing cells indicate ABCB1-inhibition. Elacridar served as positive control. (B) Accumulation of drugs upon ABCB1-inhibition with elacridar measured by HPLC-QqQ MS.
# (without elacridar inhibition).
# (1 picture or pasted object on this page, not shown here)
# [3] = metabolites detected in CSF; cited from earlier work
# [4] = Detection of drug metabolites in patient CSF, HPLC-IMS-Q-TOF MS with in silico metabolite prediction; assay type: in vivo, human
# Description: In a next step, theoretical molecular formulas and related ion masses of the predicted metabolites were transferred into a database and compared to measured high-resolution Q-TOF mass spectra of biological samples. For that purpose, MassHunter Qualitative Workflows B.08.00 software (Agilent Technologies, Santa Clara, California) was used, as it enables (semi)-automated data processing. Within this procedure, theoretical and measured exact ion masses and abundances of isotopologues and molecule-cation adducts were compared. The results of this comparison were then used to evaluate the validity of the identification, which is expressed as a score. This quality measure is important as it reduces the risk of false positives that are likely in complex biological samples, especially when only the accurate mass of a molecule is used. […]
# (§1) Metabolite detection and determination of collision cross sections was performed using an IMS-Q-TOF MS within a mass range of 100 – 1700 m/z in QTOF-only and IMS mode respectively. Ionization was again obtained by the means of positive electrospray ionization using 5 L min-1 of nitrogen stream with 300 °C for drying, a capillary voltage of 3.5 kV and a nebulizer pressure of 35 psig. Further parameters included a sheath gas flow of 11 L min-1 at 350 °C and a nozzle voltage of 1 kV. The fragmentor voltage was set to 400 V. Ion mobility experiments were performed with a maximal drift time of 60 ms at a frame rate of 0.9 frames per second resulting in a total of 600 TOF-transients within one frame. Data processing was achieved using IM-MS Browser B.08.00 from Agilent Technologies on the basis of ion
# [5] = Matched serum sample to prove oral uptake of nintedanib, HPLC-MS; assay type: in vivo, human; conditions: one time point, patient #4
# [6] = cited from earlier work
# [7] = Collision cross section by HPLC-IMS-Q-TOF MS; assay type: physicochemical
# Description: Data processing was achieved using MassHunter Workstation Software B.05.02 from Agilent […]
# for quantitation, including all transitions and corresponding collision energies as well as fragmentor voltages and retention times.
# Table S3 Overview of the used QqQ transitions for quantitative and qualitative characterization in Dynamic MRM Mode using 7 V of cell acceleration voltage, 500 ms cycle time and positive polarization within an Agilent 6420 QqQ.
# Compound Precursor Ion Product Ion / r.t. / min Fragmentor / Collision […]
# as §1
SMILES,CSF penetrance class [1],"CSF concentration, mean [1] [nM]",fraction unbound [2],"calculated free, unbound CSF concentration, mean [2] [nM]",ABCB1 substrate evaluation (ABCB1),Active / Inactive (biological activity of metabolite) [3],metabolite identification in CSF [4],other results
Cc1nc(Nc2ncc(C(=O)Nc3c(C)cccc3Cl)s2)cc(N2CCN(CCO)CC2)n1 [dasatinib],moderate (moderate (1–10 nM)),1.2,~0.99,1,highly transported by ABCB1,–,–,proportion of CSF samples in which the drug was detected ([1]; CSF samples of pediatric patients): 66%
Cc1ccc(NC(=O)c2ccc(CN3CCNCC3)cc2)cc1Nc1nccc(-c2cccnc2)n1 [demethylated imatinib],–,–,–,–,–,active,identified,–
CNC(=O)c1cc2cnc(Nc3ccc(N4CCNCC4)cn3)nc2n1C1CCCC1 [demethylated ribociclib],–,–,–,–,–,active,identified,–
O=C(CCCCCCC(=O)Nc1ccccc1)NO[C@@H]1O[C@H](C(=O)O)[C@@H](O)[C@H](O)[C@H]1O [glucuronidated vorinostat],–,–,–,–,–,inactive,identified,–
COC(=O)c1ccc2c(c1)NC(=O)/C2=C(\Nc1ccc(N(C)C(=O)CN2CCN(C)CC2)cc1)c1ccccc1 [nintedanib],–,–,–,–,intermediate,–,–,serum concentration [5]: 30 nM; detection in CSF samples [1]: not detected; also recorded: not identified
Cc1[nH]c2ccccc2c1CCNCc1ccc(/C=C/C(=O)NO)cc1 [panobinostat],–,–,–,–,highly transported by ABCB1,–,–,"panobinostat levels in a published study ([6]; children, higher panobinostat doses): below the detection limit; half-life [6]: 31 h; detection in CSF samples [1]: not detected; also recorded: untraceable"
CNC(=O)c1cc(Oc2ccc(NC(=O)Nc3ccc(Cl)c(C(F)(F)F)c3)c(F)c2)ccn1 [regorafenib],moderate (moderate (1–10 nM)),6.7,< 0.6,3.9,most favorable,–,–,protein binding in serum ([6]; serum): 99.5%; CCS value relative to that expected from the MW [7]: significantly lower
CN(C)C(=O)c1cc2cnc(Nc3ccc(N4CCNCC4)cn3)nc2n1C1CCCC1 [ribociclib],high (high (> 10 nM)),44.1,~0.99,43.5,intermediate,–,–,"level detected in CSF of our patient ([1]; pediatric patient, 3.33 mg/kg daily, as quoted in discussion): 43 nM"
O=C(O)CCC(=O)Nc1ccccc1 [succinanilic acid],–,–,–,–,–,inactive,identified; also recorded: high concentrations,–
O=C(CCCCCCC(=O)Nc1ccccc1)NO [vorinostat],high (high (> 10 nM)),75.4,~0.99,75.3,most favorable,–,–,–
